Measurements from patent US20100216875A1, “METHODS OF TREATING ALZHEIMER'S DISEASE” (priority 2006, published 2010).
Like-named read-outs stand apart in the source and are kept apart here. Each block holds one compound with its values, some of them ahead of it. Peptide text beside a SMILES is read from it. * marks the point of attachment. Cbz = O=C(OCc1ccccc1)*

Tests used:
[1] = tested on: brain and synaptosomal Aβ; assay: guinea pig brain and synaptosome Aβ by ELISA after icv infusion; assay type: in vivo; conditions: icv 0.15 mg/kg/day, 30 days
From the text: Guinea pig (gp) is a natural, non-transgenic model of human APP processing gpAPP is 98% homologous to human APP, contains the human wild-type β-secretase site, and gpAβ is identical to human Aβ. Brain synaptosome preparations are enriched with neuronal synapses which are the sites at which regulated secretion occurs and are an in vivo measure of regulated secretory secretion CTFβ is an APP fragment that results from p-secretase cleavage of APP and reflects in vivo β-secretase activity. […] E64d was icy administered into gp brains (0.15 mg/kg/day) for 7 or 30 days. […] In FIG. 5b, total synaptosomal Aβ is shown.
CA074Me (0.15 mg/kg/day) was icy infused into gp brains with mini pumps. […] An equal reduction of Aβ40 and Aβ42 is consistent with the inhibitor affecting p-secretase activity
At the end of the treatment, the brains were isolated and extracted with guanidine hydrochloride and Aβ40 and Aβ42 levels were determined using ELISA.
Cathepsin B inhibitors were administered directly into the brain by icy infusion with minipumps in time course studies at different doses. Guinea pigs were infused with compounds using Alzet pumps (2.5 μl/hr, with compounds at 1 mg/ml in saline) for 7 and 30 days, and other times. This initial dose of compound was selected because E64d and CA074Me are effective at this dose. Each treatment group consisted of eight to ten guinea pigs, including the vehicle control group.
At the end of each experiment, animals were sacrificed and half the brain was taken for ELISA measurement of Aβ40 and Aβ42 levels. The other half was isolated for synaptosome preparations for ELISA measurement of Aβ40 and Aβ42 content in nerve terminals. Synaptosomes were prepared by homogenization in isotonic sucrose (320 mM), pH 7.4, 1 mM EDTA, 0.25 mM dithiothreitol, and 30 U/MI RNAse inhibitor. The homogenate was centrifuged at 1000×g for 10 minutes. The supernatant was loaded on a Sucrose-Percoll discontinuous gradient and centrifuged at 32,000×g for 5 minutes (80) Enriched synaptosomes were washed in PBS, and centrifuged at 12,000×g for 4 minutes. The supernatant was removed, and the synaptosome containing pellet was resuspended in 50% OptiPrep (Accurate Chemica. Westbury, N.Y.), loaded on an OptiPrep discontinuous flotation gradient (9, 12.5, 25, and 35%) and centrifuged at 10,000×g for 20 minutes. The synaptosomes were obtained at the […]
For quantitative analysis of Aβ peptides, an enzyme-linked immunosorbent assay (ELISA) was used to measure the levels of total Aβ, Aβtotal, Aβ40 and Aβ42 in the brains and synaptosomes of guinea pigs (Biosource International, Camarillo, Calif.) Aβtotal, Aβ40, Aβ42 was extracted from guinea pig brains or from synaptosomes by guanidine hydrochloride and quantified as described by the manufacturer. This assay extracted the total Aβ peptide from the brain (both soluble and aggregated). Tissue samples were homogenized in 5M guanidine buffer (5M guanidine HCl in 50 mM Tris-Cl, pH 8.3; Sigma-Aldrich, St. Louis, Mo.) at 1:10 w/v dilution. Homogenates were agitated at room temperature for 3-4 hours, then stored at −20° C. The day before running the ELISA, the tissue samples were diluted further 1:10 to provide a final guanidine concentration of 0.5M. These diluted homogenates were spun down at 14,000 rpm for 20 minutes at 4° C. and supernatants used for Aβ determination by ELISA (84-86). Brain and synaptosome extracts were assayed as diluted in 0.5M guanidine. In addition, Aβ40 and Aβ42 were assayed using ELISA using 6E10 as the capture antibody and Rb209 and Rb321 as reporter antibodies, respectively, for Aβ40 and Aβ42 (96).

[2] = biological target: aspartyl protease, BACE1 (Homo sapiens, UniProt P56817); assay: effect on BACE1; assay type: biochemical
[3] = biological target: T1, cathepsin B (Homo sapiens, UniProt P07858); conditions: reference (4); read-out: IC50 for cathepsin B inhibition; cited from earlier work
[4] = tested on: endogenous β-secretase activity in regulated secretory vesicles; assay: endogenous β-secretase activity in isolated regulated secretory vesicles, monitored with Z-Val-Lys-Met-MCA; assay type: biochemical, bovine
Experimental: A high throughput screening (HTS) assay was developed to measure protease activity that cleaves the wild-type β-secretase cleavage site. The substrate Z-Val-Lys-Met-MCA mimics the wild-type β-secretase cleavage site upon cleavage between Met-MCA, which generates fluorescent MCA. The free MCA fluorescence provides sensitive and quantitative measurement of protease activity. This assay provides a rapid (30 minutes) and sensitive assay of activity for cleaving the wild-type β-secretase cleavage site of APP, expressed in majority of the AD population Specifically, the Z-Val-Lys-Met-MCA cleaving assay can be used to detect endogenous β-secretase activity in regulated secretory vesicles.
Isolation of regulated secretory vesicles, also known as chromaffin vesicles, from adrenal medullary tissue (bovine) was conducted by sucrose density gradient purification, as described previously (54-56, 58). Briefly, fresh bovine adrenal medulla (from 40 glands) was gently homogenized by a polytron (Brinkmann) in 200-250 ml ice-cold 0.32 M sucrose. The homogenate was centrifuged at 1500 rpm in a GSA rotor (Sorval centrifuge) for 20 minutes at 4° C. The supernatant was collected and centrifuged at 8000 rpm in a GSA rotor for 20 minutes at 4° C. to obtain a pellet of chromaffin vesicles. The pellet was washed 3 times in 0.32 M sucrose. […]

[5] = tested on: Aβ40 production from endogenous APP in regulated secretory vesicles isolated from chromaffin cells; assay: Aβ production from endogenous APP in isolated regulated secretory vesicles; assay type: biochemical, bovine; conditions: inhibitor 10 μM
Experimental: Regulated secretory vesicles isolated from chromaffin cells naturally produce Aβ from endogenous APP when incubated at 37° C. in vitro for several hours. These vesicles can be used as an in vitro screen for compounds that inhibit Aβ production. […] The effects of cathepsin B inhibitors, CA074 (10 μM, ♦) and CA074Me (10 μM, □), on the production of Aβ40 from endogenous APP in regulated secretory vesicles isolated from chromaffin cells was evaluated in time course studies. […] Each inhibitor was tested in triplicate; values represent x±sem (*statistically significant with p<0.05).
Cathepsin B compounds that were effective inhibitors of endogenous II-secretase activity were tested for inhibition of Aβ peptide production in regulated secretory vesicles. The effect of reversible cathepsin B compounds on production of Aβ40 and Aβ42 in isolated chromaffin vesicles was tested by incubating candidate inhibitors (at 10 μM) with lysed chromaffin vesicles under identical conditions as for the β-secretase assay for 8 hours. […] After incubation, Aβ40 and Aβ42 was measured by ELISA assays, as described for measurement of Aβ peptides in brain extracts. Each candidate inhibitor was assayed in triplicate.

[6] = biological target: cathepsin B purified from secretory vesicles (Bos taurus, UniProt P07688); assay: Z-Val-Lys-Met-MCA cleaving activity of purified cathepsin B; conditions: inhibitor 10 μM
[7] = tested on: brain Aβ; conditions: wild-type mice, icv 200 mg/kg/day; cited from earlier work
[8] = biological target: T1, cathepsin B; assay: recombinant cathepsin B β-secretase assay (Z-VKM-MCA); assay type: biochemical; parameters: purchased; conditions: recombinant human cathepsin B (3.5 ng), Z-V-K-M-MCA substrate (100 μM); read-out: IC50 inhibitory concentration
Experimental: Peptide structures that inhibit cathepsin B β-secretase activity were used to develop small molecule AD drugs. A library of dipeptide aldehydes were screened for an inhibitory effect on the cathepsin B β-secretase activity using recombinant human cathepsin B (3.5 ng) cleavage of the Z-V-K-M-MCA substrate (100 μM).
The recombinant cathepsin B β-secretase assay occurs in a solution (100 μl total volume) consisting of H2O (20 μl), Na-Acetate (50 mM, pH 5.0), NaCl (100 mM), Z-VKM-MCA (100 μM), GSH (10 mM), EDTA (1 mM), and recombinant human cathepsin B (3.5 ng) and 2DMSO (2%). A dipeptide aldehyde was added to such solutions in varying amounts to determine the IC50. The reagents were generally commercially available or, in the case of the dipeptide aldehydes, custom synthesized. The assay was incubated at 37° C. for 45 minutes and the fluorescence was read using a spectrophotometer (365/450 nm excitation/emission). Assays were run in duplicate. Compounds that inhibited cathepsin B by 80-100% (at 10 μM) underwent dose-response testing at […] to 10 μM to determine potency, measured as IC50 values (determined by non-linear regression a analysis using Graphpad Prism). Compounds with IC50 values in the nanomolar range, up to 100 nM, were selected for further study.

Sequence of aspartyl protease, BACE1 (P56817 46-501): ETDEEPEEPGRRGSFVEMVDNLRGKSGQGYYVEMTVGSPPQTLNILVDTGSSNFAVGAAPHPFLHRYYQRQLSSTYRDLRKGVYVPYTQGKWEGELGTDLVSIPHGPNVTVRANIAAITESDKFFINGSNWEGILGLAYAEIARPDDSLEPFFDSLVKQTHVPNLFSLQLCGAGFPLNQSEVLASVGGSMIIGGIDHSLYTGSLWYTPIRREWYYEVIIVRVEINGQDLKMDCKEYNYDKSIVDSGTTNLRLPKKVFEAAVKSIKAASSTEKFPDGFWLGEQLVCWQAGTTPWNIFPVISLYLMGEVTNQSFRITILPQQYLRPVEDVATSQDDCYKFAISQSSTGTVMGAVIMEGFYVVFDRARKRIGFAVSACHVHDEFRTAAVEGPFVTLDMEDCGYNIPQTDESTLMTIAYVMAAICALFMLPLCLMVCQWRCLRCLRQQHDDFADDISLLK

Structure (SMILES): CC(=O)N[C@@H](CC(C)C)C(=O)N[C@H](C(=O)N[C@H](C=O)CCCCN)C(C)C [Ac-LVK-CHO, acetyl-L-leucyl-L-valyl-L-lysinal] (Ac-Leu-Val-Lys-aldehyde)
reduction of Aβ40 in brain extracts [1]: about 70%
reduction of Aβ42 in brain extracts [1]: ~60%
effect on BACE1 [2]: do not affect
IC50 [3]: 4 nM

Structure (SMILES): CC(C)C[C@H](NC(=O)[C@@H](NC(=O)[C@@H](N)CNC(=O)c1nn[nH]n1)C(C)C)C(=O)N[C@@H](Cc1ccccc1)[C@@H](O)C(=O)Nc1cc(C(=O)O)cc(C(=O)O)c1 [KMI-429]
maximum reduction in brain Aβ [7]: 30-40%

Structure (SMILES): CC(=O)NCCCCC(C=O)NC(=O)C(CSC(=O)OCc1ccccc1)NC(=O)OCc1ccccc1 (stereo not shown) [Z-C(Z)K(Ac)-ald] (Cbz-Cys(Cbz)-Lys(Ac)-aldehyde; configuration not given here)
IC50 [8]: 91 nM

Structure (SMILES): O=CC(CO)NC(=O)C(CSC(=O)OCc1ccccc1)NC(=O)OCc1ccccc1 (stereo not shown) [Z-C(Z)S-ald] (Cbz-Cys(Cbz)-Ser-aldehyde; configuration not given here)
IC50 [8]: 67 nM

Structure (SMILES): O=CC(CO)NC(=O)C(CCC(=O)NC(c1ccccc1)(c1ccccc1)c1ccccc1)NC(=O)OCc1ccccc1 (stereo not shown) [Z-Q(Trt)S-ald]
IC50 [8]: 58 nM

Structure (SMILES): CC(=O)NCCCCC(C=O)NC(=O)C(NC(=O)OCc1ccccc1)C(C)C (stereo not shown) [Z-VK(Ac)-ald]
IC50 [8]: 31 nM

Structure (SMILES): O=CC(CO)NC(=O)C(Cc1ccc(O)cc1)NC(=O)OCc1ccccc1 (stereo not drawn) [Z-YS-ald] (Cbz-Tyr-Ser-aldehyde; configuration not given here)
IC50 [8]: 37 nM

Structure (SMILES): CC(C)C(C=O)NC(=O)C(Cc1ccc(O)cc1)NC(=O)OCc1ccccc1 (stereo not drawn) [Z-YV-ald] (Cbz-Tyr-Val-aldehyde; configuration not given here)
IC50 [8]: 65 nM

Now from value to compound, other results behind:

inhibition of endogenous β-secretase activity in regulated secretory vesicles ([4]; inhibitor 1 μM): completed inhibited
Structure (SMILES): CCCNC(=O)[C@H]1O[C@@H]1C(=O)N[C@H](C(=O)N1CCC[C@H]1C(=O)O)[C@@H](C)CC [CA074]
effect on Aβ production in isolated regulated secretory vesicles [5]: block Aβ production

inhibition of endogenous β-secretase activity in regulated secretory vesicles ([4]; inhibitor 10 μM): completed inhibited
inhibition of Z-Val-Lys-Met-MCA cleaving activity of cathepsin B [6]: completely inhibited
Structure (SMILES): CC(C)CCNC(=O)[C@H](CC(C)C)NC(=O)[C@H]1O[C@@H]1C(=O)O [E64c]
effect on Aβ production in isolated regulated secretory vesicles [5]: inhibited
